Reference: ChEMBL document CHEMBL6127148, “Discovery of l-Lysine Dioxalate (LH1513) as a Novel Inhibitor of Calcium Oxalate Crystallization for Hyperoxaluria” (ACS Med Chem Lett, 2024)
Calls of active or inactive are those of the source. The rule behind the calls is not given here.

Assays:
Calcium oxalate [1] = experiment: Inhibition of calcium oxalate crystallization in COM (010) face assessed as growth on the (121-) steps at EC50 concentration incubated for 20 min by atomic force microscopic analysis
Calcium oxalate [2] = experiment: Inhibition of calcium oxalate crystallization in supersaturated solution of CaOx containing of 250 uM of CaCl2 and 250 uM of Na2C2O4 incubated for 72 hrs at pH 6.8 HEPES buffer by fluorescence-based assay
Calcium oxalate [3] = experiment: Inhibition of calcium oxalate crystallization in supersaturated solution of CaOx containing of 1 mM of CaCl2 and 250 uM of Na2C2O4 incubated for 72 hrs at pH 6.8 HEPES buffer by spectrophotometric method
Calcium oxalate [4] = experiment: Inhibition of calcium oxalate crystallization in COM (100) face assessed as twinned with monoclinic morphology at EC50 concentration by scanning electron microscopic analysis
[5] = Oral bioavailability in Agxt-knockout C57BL/6 mouse assessed as LH1513 level in plasma at 150 micromol/kg administered as triester prodrug and measured after 4 hrs; format: ADME, organism-based; conditions: in vivo, at 150 µmol/kg
[6] = Drug metabolism in Agxt-knockout C57BL/6 mouse assessed as LH1513 concentration in urine at 150 micromol/kg, po administered as triester prodrug and measured after 8 hrs; format: ADME, organism-based; conditions: in vivo, dose 150 µmol/kg, read-out: Ct
Mus musculus = experiment: Anti-hyperoxaluria Agxt-knockout C57BL/6 mouse model of hyperoxaluria assessed as decrease in CaOx crystals in urine at 150 micromol/kg, po administered as triester prodrug for 6 weeks by light microscopic analysis; format: functional, organism-based; conditions: dose 150.0 µmol/kg
[7] = Drug excretion in Agxt-knockout C57BL/6 mouse urine at 150 micromol/kg, po measured after 8 hrs; format: ADME, organism-based; conditions: in vivo, dose 150 µmol/kg
Calcium oxalate [8] = experiment: Inhibition of calcium oxalate crystallization in COM (100) face assessed as platy morphology at EC50 concentration by scanning electron microscopic analysis
Calcium oxalate [9] = experiment: Inhibition of calcium oxalate crystallization in COM (100) face assessed as crystals flattened at the apexes at EC50 concentration by scanning electron microscopic analysis

Row | EC50 (Calcium oxalate [2]) | EC50 (Calcium oxalate [3]) | Compound | also measured
1 | 37.9 µM |  | O=C(O)C(=O)NCCNC(=O)C(=O)O | 
2 | 112 µM |  | NCCNC(=O)C(=O)O | 

The next lines start with the molecule.

Row | Compound | EC50 (Calcium oxalate [2]) | EC50 (Calcium oxalate [3]) | also measured
3 | O=C([O-])C(=O)NCCCC[C@H](NC(=O)C(=O)[O-])C(=O)[O-].[Na+].[Na+].[Na+] | 21.7 µM | 63.8 µM | inhibition (Calcium oxalate [1]): Active; inhibition (Calcium oxalate [4]): Active; F [5]: 3%; concentration [6]: ~30 µM; Activity (Mus musculus): Active; Drug excretion [7]: Active
4 | O=C([O-])CC(O)(CC(=O)[O-])C(=O)[O-].[Na+].[Na+].[Na+] [SODIUM CITRATE] | 2500 µM | 665 µM | inhibition (Calcium oxalate [8]): Active; inhibition (Calcium oxalate [9]): Active
5 | CC(=O)C(=O)O [PYRUVATE SODIUM] | 98.3 µM | 386 µM | 
